Data as given in US20260297042A1, “BIARYLAMIDE DERIVATIVES AND THEIR USE AS PKMYT1 INHIBITORS” (CANCER RESEARCH TECHNOLOGY LIMITED, priority 2023, published 2026).

Legend:
Human PKMYT1 = molecular target: T1, Human PKMYT1 (Homo sapiens, UniProt Q99640); test: PKMYT1 biochemical ADP-Glo enzymatic assay; details: PKMYT1 kinase domain 15 nM; ADP-Glo; banded values
T1 construct: Human PKMYT1 75-362 was cloned as a TEV cleavable 6xHis fusion; 6xHis (TEV cleavable) (cleaved yes); made in house; host or cells: bacterial cells
T1 sequence (Q99640 75-362): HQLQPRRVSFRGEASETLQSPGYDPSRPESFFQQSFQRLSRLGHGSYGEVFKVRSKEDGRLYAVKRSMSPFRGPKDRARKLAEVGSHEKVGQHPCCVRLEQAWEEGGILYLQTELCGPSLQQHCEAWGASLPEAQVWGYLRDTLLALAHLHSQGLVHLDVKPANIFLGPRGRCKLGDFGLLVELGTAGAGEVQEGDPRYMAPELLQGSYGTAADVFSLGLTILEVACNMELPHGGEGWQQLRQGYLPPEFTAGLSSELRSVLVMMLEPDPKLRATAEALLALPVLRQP
Method in brief: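 Purified untagged human PKMYT1 75-362 at 15 nM final was tested in HEPES pH 7.5 with MgCl2, EGTA, Brij-35 and 1% DMSO. Intrinsic ATPase activity was measured with 500 uM ATP over 60 min at 26° C. ADP-Glo luminescence was read and IC50 fitted from 10-point, 3-fold dilution curves.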

WEE1 = molecular target: T2, WEE1 (Homo sapiens, UniProt P30291); test: Selectivity versus WEE1 assay (ADP-Glo enzymatic assay); type: biochemical; details: for IC50: WEE1 15 nM, ADP-Glo, banded values; for PKMYT1 vs. WEE1 selectivity: fold difference in selectivity for PKMYT1 over WEE1, banded
T2 construct: purchased Thermo Fisher PR7373A
Method in brief: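 WEE1 at 15 nM final in 50 mM HEPES pH 7.5, 10 mM MgCl2, 1 mM EGTA, 0.01% Brij-35, 1% DMSO; reaction started with 30 µM ATP, 60 min at 26 °C. ADP-Glo luminescence; IC50 from dose-response curves, replicates within 3-fold and r2 >0.9.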

KYSE-30 cells = test: Cancer cell line proliferation assay, ATP-based cell viability (Cell Titre Glow), KYSE-30 (normal CCNE1); details: Homo sapiens, KYSE-30 cells (normal CCNE1), concentration that achieves 50% cell growth proliferation inhibition, read-out: KYSE30 Gl50
Experimental: (§1) Cancer cell lines with either normal (KYSE-30) or amplified CCNE1 expression (OVCAR 3 —ovarian cancer) were evaluated for their sensitivity to PKMYT1 inhibitors using Cell Titre Glow assay (Promega G7573) as endpoint to assess cell proliferation. The luminescence signal was read on a PHERAStar FS microplate reader (BMG Labtech). Data analysis was performed using Microsoft Excel® and Gl50 (concentration that achieves 50% cell growth proliferation inhibition) estimates generated with GraphPad Prism v9.

OVCAR 3 cells = test: Cancer cell line proliferation assay, ATP-based cell viability (Cell Titre Glow), OVCAR 3 (CCNE1-amplified); details: KYSE30 (normal CCNE1) GI50 vs. OVCAR 3 (CCNE1-amplified) GI50
Experimental: as §1

T2 sequence (P30291 whole entry): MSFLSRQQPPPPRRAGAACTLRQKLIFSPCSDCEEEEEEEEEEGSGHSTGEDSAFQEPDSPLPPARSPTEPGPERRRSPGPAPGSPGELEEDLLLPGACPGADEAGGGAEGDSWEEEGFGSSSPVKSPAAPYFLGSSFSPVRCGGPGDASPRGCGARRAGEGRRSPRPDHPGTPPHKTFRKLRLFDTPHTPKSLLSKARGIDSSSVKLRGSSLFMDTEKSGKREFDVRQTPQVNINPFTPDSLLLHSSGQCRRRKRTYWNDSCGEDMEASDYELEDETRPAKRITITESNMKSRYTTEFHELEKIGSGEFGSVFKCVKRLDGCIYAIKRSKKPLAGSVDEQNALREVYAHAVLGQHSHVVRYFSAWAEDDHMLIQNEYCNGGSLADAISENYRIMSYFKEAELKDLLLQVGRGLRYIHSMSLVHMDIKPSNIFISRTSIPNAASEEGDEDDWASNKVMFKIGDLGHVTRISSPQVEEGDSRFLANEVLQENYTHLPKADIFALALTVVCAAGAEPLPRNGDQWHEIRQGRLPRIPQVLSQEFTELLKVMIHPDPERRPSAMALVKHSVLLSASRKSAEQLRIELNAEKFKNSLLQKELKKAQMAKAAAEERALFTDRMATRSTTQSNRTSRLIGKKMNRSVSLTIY

Structure (SMILES)	IC50 (Human PKMYT1) [µM]	IC50 (WEE1) [µM]	PKMYT1 vs. WEE1 selectivity (WEE1)	GI50 (KYSE-30 cells) [µM]	Selectivity ratio KYSE30 Gl50 vs. OVCAR3 Gl50 (OVCAR 3 cells)
CCCn1nc(Nc2ncc(C(=O)Nc3c(C)ccc(O)c3C)s2)c2ccccc21 [BAA-460, N-(3-hydroxy-2,6-dimethylphenyl)-2-((1-propyl-1H-indazol-3-yl)amino)thiazole-5-carboxamide]	0.05 to 1	1 to 11	X (100-<1000 fold)	0.5 to 5	Y (>20 fold)
COCCn1cc(C)c(Nc2ncc(C(=O)Nc3c(C)ccc(O)c3C)s2)n1 [BAA-490, N-(3-hydroxy-2,6-dimethylphenyl)-2-((1-(2-methoxyethyl)-4-methyl-1H-pyazol-3-yl)amino)thiazole-5-carboxamide]	< 0.05	1 to 11	X (100-<1000 fold)	> 5	Y (>20 fold)
CCCN(C)C(=O)Cn1cc(C)c(Nc2ncc(C(=O)Nc3c(C)ccc(O)c3C)s2)n1 [BAA-491, N-(3-hydroxy-2,6-dimethylphenyl)-2-((4-methyl-1-(2-(methyl(propyl)amino)-2-oxoethyl)-1H-pyrazol-3-yl)amino)thiazole-5-carboxamide]	< 0.05	1 to 11	X (100-<1000 fold)	> 5	Y (>20 fold)
Cc1cn(CC(=O)N2CCCC2C)nc1Nc1ncc(C(=O)Nc2c(C)ccc(O)c2C)s1 (centres unmarked) [BAA-492, N-(3-hydroxy-2,6-dimethylphenyl)-2-((4-methyl-1-(2-(2-methylpyrrolidin-1-yl)-2-oxoethyl)-1H-pyrazol-3-yl)amino)thiazole-5-carboxamide]	< 0.05	1 to 11	X (100-<1000 fold)	> 5	Y (>20 fold)
CCn1nc(Nc2ncc(C(=O)Nc3c(C)ccc(O)c3C)s2)cc1C [BAA-495, 2-((1-ethyl-5-methyl-1H-pyrazol-3-yl)amino)-N-(3-hydroxy-2,6-dimethylphenyl)thiazole-5-carboxamide]	0.05 to 1	1 to 11	W (10-<100 fold)	> 5	Y (>20 fold)
Cc1cn(CC(=O)N2CCC(C)C2)nc1Nc1ncc(C(=O)Nc2c(C)ccc(O)c2C)s1 (centres unmarked) [BAA-497, N-(3-hydroxy-2,6-dimethylphenyl)-2-((4-methyl-1-(2-(3-methylpyrrolidin-1-yl)-2-oxoethyl)-1H-pyrazol-3-yl)amino)thiazole-5-carboxamide]	< 0.05	1 to 11	X (100-<1000 fold)	> 5	Y (>20 fold)
Cc1cn(CC(C)O)nc1Nc1ncc(C(=O)Nc2c(C)ccc(O)c2C)s1 (centres unmarked) [BAA-499, N-(3-hydroxy-2,6-dimethylphenyl)-2-((1-(2-hydroxypropyl)-4-methyl-1H-pyrazol-3-yl)amino)thiazole-5-carboxamide]	< 0.05	1 to 11	X (100-<1000 fold)	> 5	Y (>20 fold)
CCN(CC(F)(F)F)C(=O)Cn1cc(C)c(Nc2ncc(C(=O)Nc3c(C)ccc(O)c3C)s2)n1 [BAA-502, 2-((1-(2-(ethyl(2,2,2-trifluoroethyl)amino)-2-oxoethyl)-4-methyl-1H-pyrazol-3-yl)amino)-N-(3-hydroxy-2,6-dimethylphenyl)thiazole-5-carboxamide]	< 0.05	1 to 11	X (100-<1000 fold)	> 5	Y (>20 fold)
Cc1ccc(O)c(C)c1NC(=O)c1cnc(Nc2ccn(C(C)C(=O)N3CCCC3)n2)s1 (centres unmarked) [BAA-506, N-(3-Hydroxy-2.6-dimethylphenyl)-2-((1-(1-oxo-1-(pyrrolidin-1-yl)propan-2-yl)-1H-pyrazol-3-yl)amino)thiazole-5-carboxamide]	< 0.05	1 to 11	X (100-<1000 fold)	> 5	Y (>20 fold)
CCN(CC)C(=O)C(C)n1nc(Nc2ncc(C(=O)Nc3c(C)ccc(O)c3C)s2)cc1C (centres unmarked) [BAA-509, 2-((1-(1-(diethylamino)-1-oxopropan-2-yl)-5-methyl-1H-pyrazol-3-yl)amino)-N-(3-hydroxy-2,6-dimethylphenyl)thiazole-5-carboxamide]	0.05 to 1	> 11	X (100-<1000 fold)	> 5	Y (>20 fold)

Now from value to compound, other results behind:

IC50 (Human PKMYT1) [µM]	IC50 (WEE1) [µM]	PKMYT1 vs. WEE1 selectivity (WEE1)	Structure (SMILES)	GI50 (KYSE-30 cells) [µM]	Selectivity ratio KYSE30 Gl50 vs. OVCAR3 Gl50 (OVCAR 3 cells)
< 0.05	1 to 11	X (100-<1000 fold)	Cc1ccc(O)c(C)c1NC(=O)c1cnc(Nc2cccc(-c3cnn(C(F)F)c3)n2)s1 [BAA-399, 2-((6-(1-(difluoromethyl)-1H-pyrazol-4-yl)pyridin-2-yl)amino)-N-(3-hydroxy-2,6-dimethylphenyl)thiazole-5-carboxamide]	0.5 to 5	Y (>20 fold)
< 0.05	0.05 to 1	W (10-<100 fold)	Cc1ccc(O)c(C)c1NC(=O)c1cnc(Nc2cccc(-c3ncccn3)n2)s1 [BAA-403, N-(3-hydroxy-2,6-dimethylphenyl)-2-((6-(pyrimidin-2-yl)pyridin-2-yl)amino)thiazole-5-carboxamide]	> 5	Y (>20 fold)
< 0.05	1 to 11	X (100-<1000 fold)	COc1cccc(Nc2ncc(C(=O)Nc3c(C)ccc(O)c3C)s2)n1 [BAA-416, N-(3-hydroxy-2,6-dimethylphenyl)-2-((6-methoxypyridin-2-yl)amino)thiazole-5-carboxamide]	0.5 to 5	Y (>20 fold)
< 0.05	> 11	X (100-<1000 fold)	Cc1ccc(O)c(C)c1NC(=O)c1cnc(Nc2cccc(OC(C)C)n2)s1 [BAA-429, N-(3-hydroxy-2,6-dimethylphenyl)-2-((6-isopropoxypyridin-2-yl)amino)thiazole-5-carboxamide]	< 0.5	Y (>20 fold)
< 0.05	1 to 11	X (100-<1000 fold)	Cc1ccc(O)c(C)c1NC(=O)c1cnc(Nc2ncnc3sccc23)s1 [BAA-447, N-(3-hydroxy-2,6-dimethylphenyl)-2-(thieno[2,3-d]pyrimidin-4-ylamino)thiazole-5-carboxamide]	> 5	Y (>20 fold)
< 0.05	1 to 11	X (100-<1000 fold)	Cc1ccc(O)c(C)c1NC(=O)c1cnc(Nc2ncnn3cccc23)s1 [BAA-450, N-(3-hydroxy-2,6-dimethylphenyl)-2-(pyrrolo[2,1-f][1,2,4]triazin-4-ylamino)thiazole-5-carboxamide]	> 5	X (3-20 fold)
< 0.05	1 to 11	X (100-<1000 fold)	Cc1ccc(O)c(C)c1NC(=O)c1cnc(Nc2nn(CC(F)(F)F)c3ccccc23)s1 [BAA-457, N-(3-hydroxy-2,6-dimethylphenyl)-2-((1-(2,2,2-trifluoroethyl)-1H-indazol-3-yl)amino)thiazole-5-carboxamide]	0.5 to 5	Y (>20 fold)
< 0.05	1 to 11	X (100-<1000 fold)	CCn1cc(C)c(Nc2ncc(C(=O)Nc3c(C)ccc(O)c3C)s2)n1 [BAA-477, 2-((1-ethyl-4-methyl-1H-pyrazol-3-yl)amino)-N-(3-hydroxy-2,6-dimethylphenyl)thiazole-5-carboxamide]	> 5	Y (>20 fold)
< 0.05	1 to 11	X (100-<1000 fold)	CCN(C)C(=O)Cn1cc(C)c(Nc2ncc(C(=O)Nc3c(C)ccc(O)c3C)s2)n1 [BAA-489, 2-((1-(2-(ethyl(methyl)amino)-2-oxoethyl)-4-methyl-1H-pyrazol-3-yl)amino)-N-(3-hydroxy-2,6-dimethylphenyl)thiazole-5-carboxamide]	> 5	Y (>20 fold)
